The text below walks through data of patent US12077483B2, “Modified amine lipids” (Intellia Therapeutics, Inc., priority 2018, dated 2024).

One data set deals with mouse B2M gene. Description: In vivo editing in mouse liver, LNP with Cas9 mRNA and sgRNA G650, NGS. To be noted: Table 3; guide G650; CD-1 female mice, 0.1 mpk i.v., liver at 6 or 7 days; Exp. 2-7. The procedure:
LNPs were prepared using various amine lipids in a 4-component lipid system consisting of an ionizable lipid (e.g. an amine lipid), DSPC, cholesterol and PEG-2k-DMG. In assays for percent liver editing in mice, Cas9 mRNA and chemically modified sgRNA targeting a mouse sequence were formulated in LNPs, at either a 1:1 w/w ratio or a 1:2 w/w ratio.
The lipid components were dissolved in 100% ethanol with the lipid component molar ratios described below. The chemically modified sgRNA and Cas9 mRNA were combined and dissolved in 25 mM citrate, 100 mM NaCl, pH 5.0, resulting in a concentration of total RNA cargo of approximately 0.45 mg/mL. The LNPs were formulated with an N/P ratio of about 6, with the ratio of chemically modified sgRNA: Cas9 mRNA at either a 1:1 or 1:2 w/w ratio as described below.
CD-1 female mice, ranging from 6-10 weeks of age were used in each study. Animals were weighed and grouped according to body weight for preparing dosing solutions based on group average weight. LNPs were dosed via the lateral tail vein in a volume of 0.2 mL per animal (approximately 10 mL per kilogram body weight). The animals were periodically observed for adverse effects for at least 24 hours post dose.
For studies measuring in vivo editing in liver, CD-1 female mice were dosed at 0.1 mpk unless otherwise noted. Animals were euthanized at 6 or 7 days by exsanguinationvia cardiac puncture under isoflourane anesthesia. Liver tissue was collected from each animal for DNA extraction and analysis. Blood was collected into serum separator tubes or into tubes containing buffered sodium citrate for plasma as described herein. Cohorts of mice were measured for editing by Next-Generation Sequencing (NGS).
In brief, to quantitatively determine the efficiency of editing at the target location in the genome, genomic DNA was isolated and deep sequencing was utilized to identify the presence of insertions and deletions introduced by gene editing.
PCR primers were designed around the target site (e.g., B2M), and the genomic area of interest was amplified. Additional PCR was performed according to the manufacturer's protocols (Illumina) to add the necessary chemistry for sequencing. The amplicons were sequenced on an Illumina MiSeq instrument. The reads were aligned to the relevant reference genome (e.g., GRCm38) after eliminating those having low quality scores. The resulting files containing the reads were mapped to the reference genome (BAM files), where reads that overlapped the target region of interest were selected and the number of wild type reads versus the number of reads which contain an insertion, substitution, or deletion was calculated.
The editing percentage (e.g., the “editing efficiency” or “percent editing”) is defined as the total number of sequence reads with insertions or deletions over the total number of sequence reads, including wild type.
We assessed in vivo editing efficiency for materials delivered with formulations including various amine lipid compounds. Editing was measured using either G282 (SEQ ID No: 1) which targets the mouse TTR gene or G650 (SEQ ID No. 2) which targets the mouse B2M gene. Lipids described above were assessed for efficacy through in vivo editing experiments. LNPs were formulated at a 1:1 w/w ratio of sgRNA to Cas9 mRNA, and at an N/P ratio of about 6. Molar concentrations of lipids in the lipid component of the LNPs are expressed as mol % amine lipid/DSPC/cholesterol/PEG-2k-DMG, e.g. 50/10/38.5/1.5. The final LNPs were characterized to determine the encapsulation efficiency, polydispersity index, and average particle size according to the analytical methods provided above. Analysis of average particle size, polydispersity (PDI), total RNA content and encapsulation efficiency of RNA are shown in Table 2.

Data set [1] can be described thus: pKa of amine lipid by TNS fluorescence. The data set is classed as physicochemical. To be noted: probe TNS (6-(p-toluidino)-2-naphthalenesulfonic acid sodium salt), unformulated amine lipid in ethanol, sodium phosphate buffers -9.0. The method, boiled down: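 pKa derived from a sigmoidal fit of normalized TNS fluorescence (321 nm excitation, 448 nm emission) versus pH. Lipid from ethanol stock diluted to about 100 μM final in 0.1 M phosphate buffers, pH 4.5–9.0.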

A short description of data set [2]: RNA encapsulation efficiency of LNP (Ribogreen fluorescence assay). The data set is classed as physicochemical. To be noted: LNP with the compound as amine lipid. The method, boiled down:
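LNP samples diluted in 1× TE with or without 0.2% Triton-X 100 for total or free RNA, stained ~10 min at room temperature in the dark with RiboGreen; fluorescence ex 488/em 525 nm against RNA standard curves. Encapsulation efficiency = (Total RNA−Free RNA)/Total RNA.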

The test system of a further data set is mouse TTR. Description: Serum TTR ELISA in mice after LNP delivery. The class given is in vivo. To be noted: mouse serum, relative to TSS control of same experiment. The method, boiled down:
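Mouse TTR in serum was quantified by ELISA (samples diluted e.g. 10,000- and/or 2,500-fold) 6–7 days after dosing CD-1 females with LNP, typically 0.1 mpk. Values are reported relative to vehicle-treated controls (%).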

The nature of data set [3]: LNP average particle size and polydispersity by dynamic light scattering. The data set is classed as physicochemical. To be noted: LNP with the compound as amine lipid. The method, boiled down: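 LNPs were diluted in PBS to a count rate of about 200-400 kcps and measured by DLS on a Zetasizer. Size is the intensity-weighted Z-average diameter, reported with number-average diameter, and the polydispersity index describes the spread of sizes around the mean.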

[4] abbreviates: Expt. 10, composition ratio (mol %) 50/9/38/3 for Cmpnd 49, 50/10/38.5/1.5 for the others.
Setting [5] is: Expt. 9, composition ratio (mol %) 50/9/38/3 for Cmpnd 49, 50/10/38.5/1.5 for the others.
[6] abbreviates: Expt. 2, composition ratio (mol %) 50/9/39.5/3 for Cmpnd 49, 50/9/39.5/1.5 for the others.
The mark [7] stands for this setting: Expt. 8, composition ratio (mol %) 50/9/38/3 for Cmpnd 49, 50/10/38.5/1.5 for the others.
Where [8] appears, read: Expt. 1, composition ratio (mol %) 50/9/38/3 for Cmpnd 49, 50/10/38.5/1.5 for the others.

Molecules are shown by their SMILES. “And” between values parts separate entries of the source, which are not always exact repeats. Equal values may be shown once.

For orientation: pKa means the negative logarithm of the acid dissociation constant. On to `CCCCC/C=C\C/C=C\CCCCCCCC(=O)OCC(COC(=O)CCCCCCC/C=C\C/C=C\CCCCC)OC(=O)CCCC(CCCCCCCCCCCC)OC(=O)OCCCN1CCCC1` (centres unmarked) [Compound 27, 2-((5-(((3-(pyrrolidin-1-yl)propoxy)carbonyl)oxy)heptadecanoyl)oxy)propane-1,3-diyl (9Z,9′Z,12Z,12′Z)-bis(octadeca-9,12-dienoate)], for which the “Editing Mean % Indel” value with mouse B2M gene was 13.0%. Besides, in data set [1], the pKa worked out at 5.97.

Turning to `CCCCC/C=C\C/C=C\CCCCCCCC(=O)OCC(COC(=O)CCCCCCC/C=C\C/C=C\CCCCC)OC(=O)CCC(CCCCCCCC)OC(=O)NCCN(C)C` (centres unmarked) [Compound 91, 2-((4-(((2-(dimethylamino)ethyl)carbamoyl)oxy)dodecanoyl)oxy)propane-1,3-diyl (9Z,9′Z,12Z,12′Z)-bis(octadeca-9,12-dienoate)], the Encapsulation (%) in data set [2] (setting [4]) came out at 98%. In addition, in the data set on mouse TTR (dose 0.03 mpk), the “Serum TTR % TSS” value was 89% TSS. The pKa in data set [1] is 6.48. In data set [3] (setting [4]), the “Num Ave Size (nm)” value was determined as 82 nm, the PDI came to 0.01 and the “Z-Ave Size (nm)” value is listed as 97 nm.

Take `CCCCC/C=C\C/C=C\CCCCCCCC(=O)OCC(COC(=O)CCCCCCC/C=C\C/C=C\CCCCC)OC(=O)CCC(CC/C=C\CCCCC)OC(=O)NCCN(C)CC` (centres unmarked) [Compound 107, 2-(((Z)-4-(((2-(ethyl(methyl)amino)ethyl)carbamoyl)oxy)tridec-7-enoyl)oxy)propane-1,3-diyl (9Z,9′Z,12Z,12′Z)-bis(octadeca-9,12-dienoate)]: the “Encapsulation (%)” value in data set [2] (setting [5]) is recorded as 98%. The “Serum TTR % TSS” value in the data set with mouse TTR (dose 0.03 mpk) worked out at 58.53 % TSS. Also, in data set [1], the pKa is 6.35. Also, in data set [3] (setting [5]), the “Num Ave Size (nm)” value was 72 nm, the PDI amounted to 0.03 and the “Z-Ave Size (nm)” value was 89 nm.

With `CCCCC/C=C\C/C=C\CCCCCCCC(=O)OCC(COC(=O)CCCCCCC/C=C\C/C=C\CCCCC)OC(=O)CCC(CCCC)OC(=O)NCC1CCCN1C` (centres unmarked) [Compound 67, 2-((4-((((1-methylpyrrolidin-2-yl)methyl)carbamoyl)oxy)octanoyl)oxy)propane-1,3-diyl (9Z,9′Z,12Z,12′Z)-bis(octadeca-9,12-dienoate)], the “Encapsulation (%)” value in data set [2] (setting [6]) is listed as 99%. For the same molecule, the “Serum TTR % TSS” value with mouse TTR (dose 0.03 mpk) amounted to 65.41 % TSS. For the same molecule, the pKa in data set [1] was found to be 6.43. Besides, in data set [3] (setting [6]), the “Num Ave Size (nm)” value is listed as 82.14 nm, the PDI is on record as 0.043 and the “Z-Ave Size (nm)” value is 102.20 nm.

On to `CCCCC/C=C\C/C=C\CCCCCCCC(=O)OCC(COC(=O)CCCCCCC/C=C\C/C=C\CCCCC)OC(=O)CCC(CCCCCC)OC(=O)NCC1CCCN1C` (centres unmarked) [Compound 44, 2-((4-((((1-methylpyrrolidin-2-yl)methyl)carbamoyl)oxy)decanoyl)oxy)propane-1,3-diyl (9Z,9′Z,12Z,12′Z)-bis(octadeca-9,12-dienoate)], for which the “Encapsulation (%)” value in data set [2] (setting [6]) and in data set [2] (setting [7]) was 99% throughout. For the same molecule, the “Serum TTR % TSS” value worked out at 119.97 % TSS in the data set on mouse TTR (dose 0.03 mpk) and 78.79 % TSS in the data set on mouse TTR (dose 0.1 mpk). Also, in data set [1], the pKa turned out to be 6.45. In addition, the “Num Ave Size (nm)” value in data set [3] (setting [6]) came to 78.34 nm; in data set [3] (setting [7]), 85.76 nm. In addition, the PDI in data set [3] (setting [6]) and in data set [3] (setting [7]) was 0.034 in each case. The “Z-Ave Size (nm)” value in data set [3] (setting [6]) was 97.65 nm; in data set [3] (setting [7]), 104.3 nm.

Regarding `CCCCC/C=C\C/C=C\CCCCCCCC(=O)OCC(COC(=O)CCCCCCC/C=C\C/C=C\CCCCC)OC(=O)CC(CCCCCCCC)OC(=O)NCCN(C)CC` (centres unmarked) [Compound 52, 2-((3-(((2-(ethyl(methyl)amino)ethyl)carbamoyl)oxy)undecanoyl)oxy)propane-1,3-diyl (9Z,9′Z,12Z,12′Z)-bis(octadeca-9,12-dienoate)], the “Encapsulation (%)” value in data set [2] (setting [8]) came to 98%. Moreover, the “Serum TTR % TSS” value with mouse TTR (dose 0.1 mpk) amounted to 17.31 % TSS. Moreover, the pKa in data set [1] turned out to be 6.26. In data set [3] (setting [8]), the “Num Ave Size (nm)” value is given as 74.35 nm, the PDI came out at 0.03 and the “Z-Ave Size (nm)” value is on record as 90.75 nm.

On to `CCCCC/C=C\C/C=C\CCCCCCCC(=O)OCC(COC(=O)CCCCCCC/C=C\C/C=C\CCCCC)OC(=O)CCC(CC(CC)CC)OC(=O)NCCN1CCCC1` (centres unmarked) [Compound 106, 2-((6-ethyl-4-(((2-(pyrrolidin-1-yl)ethyl)carbamoyl)oxy)octanoyl)oxy)propane-1,3-diyl (9Z,9′Z,12Z,12′Z)-bis(octadeca-9,12-dienoate)], for which the “Encapsulation (%)” value in data set [2] (setting [5]) is given as 99%. Moreover, in the data set with mouse TTR (dose 0.03 mpk, 0.03 mg/kg), the “Serum TTR % TSS” value is 82.47 % TSS and 88.7 % TSS. In addition, the pKa in data set [1] stood at 6.8. Moreover, in data set [3] (setting [5]), the “Num Ave Size (nm)” value is listed as 74 nm, the PDI is 0.01 and the “Z-Ave Size (nm)” value worked out at 91 nm.

As to `CCCCCCCCCCCOC(=O)CCCCCCCC(=O)OCC(COC(=O)CCCCCCCC(=O)OCCCCCCCCCCC)OC(=O)CCC(CCCCCCCC)OC(=O)NCCN(C)CC` (centres unmarked) [Compound 60, O′1,O1-(2-((4-(((2-(ethyl(methyl)amino)ethyl)carbamoyl)oxy)dodecanoyl)oxy)propane-1,3-diyl) 9,9′-diundecyl di(nonanedioate)], in data set [2] (setting [8]), the “Encapsulation (%)” value is 97%. In addition, the “Serum TTR % TSS” value with mouse TTR (dose 0.1 mpk) was determined as 60.51 % TSS. For the same molecule, the pKa in data set [1] turned out to be 6.22. In data set [3] (setting [8]), the “Num Ave Size (nm)” value was 79.57 nm, the PDI is 0.07 and the “Z-Ave Size (nm)” value is reported as 103.40 nm.

For `CCCCC/C=C\C/C=C\CCCCCCCC(=O)OCC(COC(=O)CCCCCCC/C=C\C/C=C\CCCCC)OC(=O)CCC(CCCCC)OC(=O)NCC1CCCN1C` (centres unmarked) [Compound 70, 2-((4-((((1-methylpyrrolidin-2-yl)methyl)carbamoyl)oxy)nonanoyl)oxy)propane-1,3-diyl (9Z,9′Z,12Z,12′Z)-bis(octadeca-9,12-dienoate)], the “Encapsulation (%)” value in data set [2] (setting [7]) is on record as 99%. Moreover, in the data set with mouse TTR (dose 0.03 mpk), the “Serum TTR % TSS” value is recorded as 126.29 % TSS. The “Serum TTR % TSS” value in the data set with mouse TTR (dose 0.1 mpk) was found to be 87.49 % TSS. The pKa in data set [1] is 6.61. In addition, in data set [3] (setting [7]), the “Num Ave Size (nm)” value is listed as 102 nm, the PDI amounted to 0.018 and the “Z-Ave Size (nm)” value is on record as 124.2 nm.
